This note sets out measurements from patent US9181255B2, “Fused heteroaromatic pyrrolidinones as SYK inhibitors” (Takeda Pharmaceutical Company Limited, priority 2009, dated 2015).

The assay concerns the target SYK (Homo sapiens, UniProt P43405). The experiment in a line: SYK inhibition assay: SYK-mediated phosphorylation of FAM-labeled substrate (Caliper microfluidic). Particulars: read-out: SYK Inhibition (pIC50) (converted). The assay is classed as biochemical.

For `CC1NC(=O)c2c(-c3cnn(C)c3)nc(N[C@@H]3CCCC[C@@H]3N)c(F)c21` (stereo partly drawn) [Example 124, 6-((1R,2S)-2-Aminocyclohexylamino)-7-fluoro-1-methyl-4-(1-methyl-1H-pyrazol-4-yl)-1H-pyrrolo[3,4-c]pyridin-3(2H)-one], the IC50 is 25.1 nM.

In the case of `N[C@H]1CCCC[C@H]1Nc1nc2c(c(-c3ccccc3)n1)C(=O)NC2` [Example 16, 2-((1R,2S)-2-Aminocyclohexylamino)-4-phenyl-6,7-dihydro-5H-pyrrolo[3,4-d]pyrimidin-5-one], the IC50 was 3160 nM.

With `N[C@H]1CCCC[C@H]1Nc1nc2c(c(Nc3ccc4cn[nH]c4c3)n1)C(=O)NC2` [Example 4, 4-(1H-Indazol-6-ylamino)-2-((1R,2S)-2-aminocyclohexylamino)-6,7-dihydro-5H-pyrrolo[3,4-c]pyrimidin-5-one], the IC50 was 15.8 nM.

With `Cc1csc(-c2nc(N[C@H](CC(C)C)C(N)=O)c(F)c3c2C(=O)NC3)c1` [Example 109, (R)-2-(7-Fluoro-4-(4-methylthiophen-2-yl)-3-oxo-2,3-dihydro-1H-pyrrolo[3,4-c]pyridin-6-ylamino)-4-methylpentanamide], the IC50 is 3.16 nM.

In the case of `Cc1cc(Nc2nc(N[C@@H]3CCCC[C@@H]3N)cc3c2C(=O)NC3)ccc1F` [Example 24, 6-((1R,2S)-2-Aminocyclohexylamino)-4-(4-fluoro-3-methylphenylamino)-1H-pyrrolo[3,4-c]pyridin-3(2H)-one], the IC50 is 25.1 nM.

Turning to `N[C@H]1COCC[C@H]1Nc1nc(-n2cnc(C(F)(F)F)c2)c2c(c1F)CNC2=O` [Example 130, 6-((3R,4R)-3-Aminotetrahydro-2H-pyran-4-ylamino)-7-fluoro-4-(4-(trifluoromethyl)-1H-imidazol-1-yl)-1H-pyrrolo[3,4-c]pyridin-3(2H)-one], the IC50 was 10000 nM.

Turning to `Cc1ccc(-c2nc(N[C@H](CC(C)C)C(N)=O)c(F)c3c2C(=O)NC3)s1` [Example 111, (R)-2-(7-Fluoro-4-(5-methylthiophen-2-yl)-3-oxo-2,3-dihydro-1H-pyrrolo[3,4-c]pyridin-6-ylamino)-4-methylpentanamide], the IC50 was 7.94 nM.

As for `C=CC(=O)c1c(N[C@@H]2CCCC[C@@H]2N)nc(Nc2cccc(C)c2)c2c1CNC2=O` [Example 80, 7-Acryloyl-6-((1R,2S)-2-aminocyclohexylamino)-4-(m-tolylamino)-1H-pyrrolo[3,4-c]pyridin-3(2H)-one], the IC50 is 3160 nM.

`CC(C)C[C@@H](Nc1nc(-c2cnn(C)c2)c2c(c1F)CNC2=O)C(N)=O` [Example 70, (R)-2-(7-Fluoro-4-(1-methyl-1H-pyrazol-4-yl)-3-oxo-2,3-dihydro-1H-pyrrolo[3,4-c]pyridin-6-ylamino)-4-methylpentanamide]: the IC50 was 1.58 nM.

For `Cc1cccc(Nc2nc(N[C@@H]3CCCC[C@@H]3N(C)C)nc3c2C(=O)NC3)c1` [Example 37, 2-((1R,2S)-2-(Dimethylamino)cyclohexylamino)-4-(m-tolylamino)-6,7-dihydro-5H-pyrrolo[3,4-d]pyrimidin-5-one], the IC50 was 1000 nM.

In the case of `CC(C)C[C@@H](Nc1nc(-c2cnn(C(F)F)c2)c2c(c1F)CNC2=O)C(N)=O` [Example 71, (R)-2-(4-(1-(Difluoromethyl)-1H-pyrazol-4-yl)-7-fluoro-3-oxo-2,3-dihydro-1H-pyrrolo[3,4-c]pyridin-6-ylamino)-4-methylpentanamide], the IC50 is 7.94 nM.

Take `Cn1cc(-c2nc(N[C@@H]3CCOC[C@@H]3N)c(F)c3c2C(=O)NC3)cn1` [Example 65, 6-((3R,4R)-3-Aminotetrahydro-2H-pyran-4-ylamino)-7-fluoro-4-(1-methyl-1H-pyrazol-4-yl)-1H-pyrrolo[3,4-c]pyridin-3(2H)-one]: the IC50 was 10 nM.

For the compound `Cc1cccc(Nc2nc(N[C@@H]3CCOC[C@@H]3N)c(F)c3c2C(=O)NC3)c1` [Example 89, 6-((3R,4R)-3-Aminotetrahydro-2H-pyran-4-ylamino)-7-fluoro-4-(m-tolylamino)-1H-pyrrolo[3,4-c]pyridin-3(2H)-one], the IC50 was 3.98 nM.
